According to US20120088737A2, “NOVEL ACYL GUANIDINE DERIVATIVES” (AJINOMOTO CO., INC, priority 2009, published 2012):

Tests used:
Type in all cases: cell-based
[1] = target: T1, human NHE3 (Homo sapiens, UniProt P48764); experiment: Improved version of measurements of NHE3 inhibitory activities (OK26 ND cell lines); conditions: OK26 ND cell lines (opNHE1 expression reduced by 90%), measurement time 8 minutes at 26° C.; read-out: hNHE3 IC50
T1 construct: expressed in transfected cells; host or cells: OK26 cells (opossum kidney OK cells); OK26 ND sublines with opNHE1 reduced by 90% for A3
T1 sequence (P48764 26-834): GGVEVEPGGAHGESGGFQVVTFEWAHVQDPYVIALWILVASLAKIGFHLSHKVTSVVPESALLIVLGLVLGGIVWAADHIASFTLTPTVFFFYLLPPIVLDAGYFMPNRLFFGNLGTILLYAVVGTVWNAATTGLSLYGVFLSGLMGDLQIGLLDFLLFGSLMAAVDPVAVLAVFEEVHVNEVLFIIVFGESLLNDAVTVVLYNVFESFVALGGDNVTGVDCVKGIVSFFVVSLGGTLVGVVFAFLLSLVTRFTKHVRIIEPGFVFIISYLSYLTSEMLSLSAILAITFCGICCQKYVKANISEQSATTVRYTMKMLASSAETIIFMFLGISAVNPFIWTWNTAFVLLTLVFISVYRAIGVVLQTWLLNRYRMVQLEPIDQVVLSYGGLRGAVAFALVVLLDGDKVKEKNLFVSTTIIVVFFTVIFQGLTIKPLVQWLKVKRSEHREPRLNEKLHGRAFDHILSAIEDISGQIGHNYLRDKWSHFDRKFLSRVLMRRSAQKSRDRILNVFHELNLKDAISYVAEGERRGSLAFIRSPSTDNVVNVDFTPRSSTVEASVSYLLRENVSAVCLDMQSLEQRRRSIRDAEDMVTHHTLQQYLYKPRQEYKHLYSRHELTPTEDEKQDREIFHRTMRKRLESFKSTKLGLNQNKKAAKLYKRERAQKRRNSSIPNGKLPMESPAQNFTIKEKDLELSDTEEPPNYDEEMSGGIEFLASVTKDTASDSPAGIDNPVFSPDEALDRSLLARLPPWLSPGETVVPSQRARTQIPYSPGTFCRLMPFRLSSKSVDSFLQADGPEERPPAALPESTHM
Experimental: Pharmacological Test Example 3: Improved Version of Measurements of NHE3 Inhibitory Activities
OK26 cells express endogeneous NHE1 (opNHE1). In order to evaluate NHE3 inhibitory activities more precisely, OK26 ND cell lines in which the expression level of opNHE1 is reduced by 90% were established. Measurements of NEE inhibitory activities were carried out by using the established cell lines in the same manner as described in Pharmacological Test Example 1 except that the measurement time was 8 minutes (at 26° C.) to calculate more precise NHE3 inhibitory activities.

[2] = target: T1, human NHE3; experiment: Measurements of NHE3 inhibitory activities (OK26 cells); conditions: OK26 cells (opossum kidney cells overexpressing human NHE3), measurement time 5 minutes at 37° C.; read-out: hNHE3 IC50
Experimental: (§1) HLF cells (Human hepatoma cell line) were used as cells for the test. After 1×10^4 cells/well were seeded to a 96-well plate and cultured for 3 days, they were cultured overnight under a serum-free medium. Then, the cells were incubated in a stain solution of Tetramethylammonium (TMA) Buffer (130 mM TMA-C1, 5 mM KCl, 2 mM CaCl2, 1 mM MgSO2, 25 mM glucose, 20 mM HEPES; pH 7.4) containing 40 mM NH4Cl and 1 μg/mL pH-sensitive fluorescent indicator BCECF-AM at 37° C. for 40 minutes and then BCECF was introduced into the cells. After the cells were washed once with TMA Buffer and incubated in TMA+40 mM NH4Cl solution at 37° C. for 15 minutes, the solution was removed and 20 μL/well of TMA Buffer and 10 μL/well of each test compound solution prepared with TMA Buffer were added to each well. The measurements were carried out by adding 200 μL/well of Na Buffer (130 mM, NaCl, 5 mM KCl, 2 mM CaCl2, 1 mM MgSO2, 1 mM NaH2PO4, 25 mM glucose, 20 mM HEPES; pH 7.4) or TMA Buffer (for base measurement), immediately placing it on FlexStation (Molecular Device) and then, after 10 minutes, measuring, it the two wavelengths of 505 nm (excitation wavelength)/530 nm (emission wavelength) (measurement value) and 440 nm (excitation wavelength)/530 nm (emission wavelength) (isosbestic point value). A NHE activity was calculated by dividing a measurement value by an isosbestic point value and a NHE1 inhibitory activity was calculated by the following equation. NHE1 inhibitory activity (%)=100×(1−(Measurement value [addition of each compound]−Base [addition of TMA Buffer])/(Control [addition of Na Buffer]−Base [addition of TMA Buffer]))
Pharmacological Test Example 2: Measurements of NHE3 Inhibitory Activities.
OK26 cells (OK (opossum kidney) cells in which human NHE3 genes are overexpressed) were used as cells for the test. The measurements were carried out in the same manner as described in Pharmacological Test Example 1 except that the measurement time was 5 minutes (at 37° C.) to calculate NHE3 inhibitory activities.

[3] = target: T2, NHE1 (Homo sapiens, UniProt P19634); experiment: Measurements of NHE1 inhibitory activities (HLF cells, BCECF pH recovery); conditions: HLF cells (human hepatoma cell line), measured after 10 minutes; read-out: hNHE1 IC50
T2 construct: HLF cells (Human hepatoma cell line) were used as cells for the test; endogenous in cells; host or cells: HLF cells (human hepatoma cell line)
Experimental: Pharmacological Test Example 1: Measurements of NHE1 Inhibitory Activities
as §1

T2 sequence (P19634 whole entry): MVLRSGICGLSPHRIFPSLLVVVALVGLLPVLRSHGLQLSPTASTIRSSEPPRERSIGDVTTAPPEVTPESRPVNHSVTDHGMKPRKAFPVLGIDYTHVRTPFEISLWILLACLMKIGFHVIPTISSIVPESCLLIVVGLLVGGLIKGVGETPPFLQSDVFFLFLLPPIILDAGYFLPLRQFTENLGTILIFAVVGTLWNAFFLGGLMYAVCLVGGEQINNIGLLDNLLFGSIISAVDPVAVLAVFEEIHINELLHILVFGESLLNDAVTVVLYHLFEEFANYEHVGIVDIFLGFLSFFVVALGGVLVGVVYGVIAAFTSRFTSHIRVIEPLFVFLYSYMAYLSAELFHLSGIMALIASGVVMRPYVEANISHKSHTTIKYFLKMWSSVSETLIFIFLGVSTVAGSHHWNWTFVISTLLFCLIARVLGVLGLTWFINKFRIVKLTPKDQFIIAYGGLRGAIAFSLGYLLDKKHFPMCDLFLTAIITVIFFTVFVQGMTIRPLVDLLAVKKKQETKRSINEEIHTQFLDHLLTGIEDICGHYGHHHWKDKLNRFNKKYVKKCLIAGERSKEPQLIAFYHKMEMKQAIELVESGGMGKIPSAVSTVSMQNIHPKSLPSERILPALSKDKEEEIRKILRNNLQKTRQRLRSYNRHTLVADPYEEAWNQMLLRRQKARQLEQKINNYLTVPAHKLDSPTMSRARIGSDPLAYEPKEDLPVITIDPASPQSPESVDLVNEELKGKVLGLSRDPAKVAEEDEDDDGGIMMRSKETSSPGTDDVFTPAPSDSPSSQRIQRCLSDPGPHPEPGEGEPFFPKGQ

Row | IC50 [1] [nM] | IC50 [2] [nM] | IC50 [3] [nM] | Structure (SMILES)
1 | 83 | 110 |  | C/C(=C\c1ccccc1-c1ccc(O)cc1)C(=O)NC(=N)N [Example 2, N-[(E)-3-(4′-hydroxy-biphenyl-2-yl)-2-methyl-acryloyl]-guanidine]
2 |  | 1600 |  | C/C(=C\c1ccccc1-c1ccc(C(=O)O)cc1)C(=O)NC(=N)N [Example 10, (E)-2′-(3-guanidino-2-methyl-3-oxo-propenyl)-biphenyl-4-carboxylic acid]
3 | 100 | 230 | 1200 | C/C(=C\c1ccccc1-c1ccc(B(O)O)cc1)C(=O)NC(=N)N [Example 11, N-[(E)-3-(4′-boronic acid-biphenyl-2-yl)-2-methyl-acryloyl]guanidine]
4 | 110 | 210 |  | C/C(=C\c1ccccc1-c1cccc(O)c1)C(=O)NC(=N)N [Example 13, N-[(E)-3-(3′-hydroxy-biphenyl-2-yl)-2-methyl-acryloyl]guanidine]
5 | 230 | 230 | 3100 | C/C(=C\c1ccccc1-c1cc(C)c(O)c(C)c1)C(=O)NC(=N)N [Example 22, N-[(E)-3-(3′,5′-dimethyl-4′-hydroxy-biphenyl-2-yl)-2-methyl-acryloyl]-guanidine]
6 | 210 | 470 | 1200 | C/C(=C\c1ccccc1-c1ccc(O)c(F)c1)C(=O)NC(=N)N [Example 24, N-[(E)-3-(3′-fluoro-4′-hydroxy-biphenyl-2-yl)-2-methyl-acryloyl]-guanidine]
7 | 230 | 230 | 500 | C/C(=C\c1ccccc1-c1ccc(O)c(O)c1)C(=O)NC(=N)N [Example 26, N-[(E)-3-(3′,4′-dihydroxy-biphenyl-2-yl)-2-methyl-acryloyl]-guanidine]
8 | 230 | 320 |  | C/C(=C\c1cc(O)c(O)cc1-c1cccc(O)c1)C(=O)NC(=N)N [Example 36, N-[(E)-2-methyl-3-(4,5,3′-trihydroxy-biphenyl-2-yl)-acryloyl]-guanidine]
9 | 38 | 180 | 1600 | C/C(=C\c1ccc(C)cc1-c1cccc(O)c1)C(=O)NC(=N)N [Example 37, N-[(E)-3-(3′-hydroxy-5-methyl-biphenyl-2-yl)-2-methyl-acryloyl]-guanidine]
10 | 60 | 190 | 1600 | C/C(=C\c1ccc(C)cc1-c1ccc(O)cc1)C(=O)NC(=N)N [Example 47, N-[(E)-3-(4′-hydroxy-5-methyl-biphenyl-2-yl)-2-methyl-acryloyl]-guanidine]
11 | 200 |  | 1400 | COc1ccc(-c2cc(C)ccc2/C=C(\C)C(=O)NC(=N)N)cc1O [Example 74, N-[(E)-3-(3′-hydroxy-4′-methoxy-5-methyl-biphenyl-2-yl)-2-methyl-acryloyl]-guanidine]
12 | 100 |  | 1800 | C/C(=C\c1ccc(-c2cc(C)c(O)c(C)c2)cc1-c1cc(C)c(O)c(C)c1)C(=O)NC(=N)N [Example 75, N-[(E)-3-(2,4-di(3,5-dimethyl-4-hydroxyphenyl)-phenyl)-2-methyl-acryloyl]-guanidine]
13 | 400 |  | 1100 | C/C(=C\c1ccc(-c2ccc(F)c(O)c2)cc1-c1ccc(F)c(O)c1)C(=O)NC(=N)N [Example 76, N-[(E)-3-(2,4-di(3-hydroxy-4-fluorophenyl)-phenyl)-2-methyl-acryloyl]-guanidine]
14 | 61 |  | 940 | C/C(=C\c1ccc(-c2cccc(O)c2)cc1-c1cccc(O)c1)C(=O)NC(=N)N [Example 77, N-[(E)-3-(2,4-di(3-hydroxyphenyl)-phenyl)-2-methyl-acryloyl]-guanidine]
15 | 150 |  | 3300 | COc1cc(-c2ccc(/C=C(\C)C(=O)NC(=N)N)c(-c3ccc(O)c(OC)c3)c2)ccc1O [Example 78, N-[(E)-3-(2,4-di(3-methoxy-4-hydroxyphenyl)-phenyl)-2-methyl-acryloyl]-guanidine]
16 | 700 |  | 5200 | C/C(=C\c1ccc(C)cc1-c1ccc(C(=N)N)c(F)c1)C(=O)NC(=N)N [Example 79, (E)-3-fluoro-2′-(3-guanidino-2-methyl-3-oxo-propenyl)-5′-methyl-biphenyl-4-carboxamidine]
17 | 200 |  | 7700 | C/C(=C\c1c(-c2ccc(O)cc2)cccc1-c1ccc(O)cc1)C(=O)NC(=N)N [Example 80, N-[(E)-3-(4,4″-dihydroxy-[1,1′;3′,1″]terphenyl-2′-yl)-2-methyl-acryloyl]-guanidine]
18 | 630 |  | 5200 | C/C(=C\c1ccc(C(F)(F)F)cc1-c1ccc(O)cc1)C(=O)NC(=N)N [Example 81, N-[(E)-3-(4′-hydroxy-5-trifluoromethyl-biphenyl-2-yl)-2-methyl-acryloyl]-guanidine]
19 | 350 |  | 6600 | C/C(=C\c1c(F)cccc1-c1ccc(O)cc1)C(=O)NC(=N)N [Example 82, N-[(E)-3-(3-fluoro-4′-hydroxy-biphenyl-2-yl)-2-methyl-acryloyl]-guanidine]
20 | 540 |  | 2200 | C/C(=C\c1ccccc1-c1cscc1C)C(=O)NC(=N)N [Example 83, N-{(E)-2-methyl-3-[2-(4-methyl-thiophene-3-yl)-phenyl]-acryloyl}-guanidine]
21 | 180 |  | 2100 | C/C(=C\c1ccccc1-c1cc[nH]c1)C(=O)NC(=N)N [Example 84, N-{(E)-2-methyl-3-[2-(1H-pyrrole-3-yl)-phenyl]-acryloyl}-guanidine]
22 |  | 230 |  | C/C(=C\c1ccc(-c2ccc(O)cc2C)cc1)C(=O)NC(=N)N [Example 86, N-[(E)-3-(4′-hydroxy-2′-methyl-biphenyl-4-yl)-2-methyl-acryloyl]-guanidine]
23 |  | 270 |  | C/C(=C\c1ccc(-c2cccc(O)c2)cc1)C(=O)NC(=N)N [Example 87, N-[(E)-3-(3′-hydroxy-biphenyl-4-yl)-2-methyl-acryloyl]-guanidine]
24 |  | 480 |  | C/C(=C\c1ccc(-c2ccccc2O)cc1)C(=O)NC(=N)N [Example 88, N-[3-(2′-hydroxy-biphenyl-4-yl)-2-methyl-acryloyl]-guanidine]
25 |  | 860 |  | C/C(=C\c1ccc(-c2ccc(F)c(O)c2)cc1)C(=O)NC(=N)N [Example 89, N-[(E)-3-(4′-fluoro-3′-hydroxy-biphenyl-4-yl)-2-methyl-acryloyl]-guanidine]
26 | 320 |  | 2100 | C/C(=C\c1ccc(-c2ccc(O)cc2)cc1N1CCOCC1)C(=O)NC(=N)N [Example 94, N-[(E)-3-(4′-hydroxy-3-morpholine-4-yl-biphenyl-4-yl)-2-methyl-acryloyl]-guanidine]
